Laboratory results from ChEMBL document CHEMBL3232999, “Computer-aided identification of novel 3,5-substituted rhodanine derivatives with activity against Staphylococcus aureus DNA gyrase” (Bioorg Med Chem, 2014).
≈ marks a conversion by molar mass, not a printed value. Values belong to the compound of their own block, whether it stands above or below them. Calls of active or inactive are those of the source. No cut-off for these calls is given here.

Key:
[1] = test system: Staphylococcus aureus; experiment: Antimicrobial activity against methicillin-resistant Staphylococcus aureus ATCC 33592 after 24 hrs by two-fold serial dilution method; type: functional; settings: ATCC 33592, 24 h
[2] = test system: Staphylococcus aureus; experiment: Antimicrobial activity against Staphylococcus aureus ATCC 6538 after 24 hrs by two-fold serial dilution method; type: functional; settings: ATCC 6538, 24 h
[3] = target: T1, DNA gyrase (Staphylococcus aureus) (UniProt P0A0K8+P20831); experiment: Inhibition of Staphylococcus aureus DNA gyrase-mediated supercoiling of relaxed DNA using N0471S as substrate at 20 uM after 30 mins by using […] staining-based agarose gel electrophoresis; type: protein-complex assay
[4] = target: DNA gyrase subunit B (Staphylococcus aureus) (UniProt P0A0K8); experiment: Inhibition of Staphylococcus aureus DNA gyrase subunit B ATPase activity assessed as consumption of inorganic phosphate at 100 uM by PNP-based absorbance assay relative to control; values are per cent of control
[5] = target: DNA gyrase subunit B (Staphylococcus aureus) (UniProt P0A0K8); experiment: Inhibition of Staphylococcus aureus DNA gyrase subunit B ATPase activity assessed as consumption of inorganic phosphate at 30 uM by PNP-based absorbance assay relative to control; values are per cent of control
[6] = target: DNA gyrase subunit B (Staphylococcus aureus) (UniProt P0A0K8); experiment: Inhibition of Staphylococcus aureus DNA gyrase subunit B ATPase activity assessed as consumption of inorganic phosphate at 300 uM by PNP-based absorbance assay relative to control; values are per cent of control
[7] = test system: Staphylococcus aureus; experiment: Antimicrobial activity against Staphylococcus aureus carolina after 24 hrs by two-fold serial dilution method; type: functional
[8] = target: T1, DNA gyrase (Staphylococcus aureus); experiment: Inhibition of Staphylococcus aureus DNA gyrase-mediated supercoiling of relaxed DNA using N0471S as substrate at 160 to 500 uM after 30 mins by using […] staining-based agarose gel electrophoresis; type: protein-complex assay
[9] = target: DNA gyrase subunit B (Staphylococcus aureus, UniProt P0A0K8); experiment: Inhibition of Staphylococcus aureus DNA gyrase subunit B ATPase activity assessed as consumption of inorganic phosphate by PNP-based absorbance assay
[10] = test system: Staphylococcus aureus; experiment: Antimicrobial activity against Staphylococcus aureus ISP 794 after 24 hrs by two-fold serial dilution method; type: functional; settings: ISP 794, 24 h
[11] = test system: Escherichia coli; experiment: Antimicrobial activity against Escherichia coli MG1655 after 24 hrs by two-fold serial dilution method; type: functional; settings: MG1655, 24 h
[12] = target: DNA gyrase subunit B (Staphylococcus aureus) (UniProt P0A0K8); experiment: Inhibition of Staphylococcus aureus DNA gyrase subunit B ATPase activity assessed as consumption of inorganic phosphate at 10 uM by PNP-based absorbance assay relative to control; values are per cent of control
[13] = test system: Escherichia coli; experiment: Inhibition of Escherichia coli DNA gyrase-mediated supercoiling of relaxed DNA using N0471S as substrate after 30 mins by using […] staining-based agarose gel electrophoresis
[14] = target: T1, DNA gyrase (Staphylococcus aureus); experiment: Inhibition of Staphylococcus aureus DNA gyrase-mediated supercoiling of relaxed DNA using N0471S as substrate at 160 uM after 30 mins by using […] staining-based agarose gel electrophoresis; type: protein-complex assay

SMILES: Cc1cccc([C@]2(C)CC(C)(C)N(C(=O)CSc3nc[nH]n3)c3ccccc32)c1
MIC [1]: 500 µg/mL (≈ 1230 µM)
MIC [2]: 125 µg/mL (≈ 307 µM)

SMILES: COc1cc([C@H]2OC[C@H]3[C@H]2CO[C@@H]3c2ccc(O)c(OC)c2)ccc1O
MIC [1]: 500 µg/mL (≈ 1400 µM)
MIC [2]: 62.5 µg/mL (≈ 174 µM)

inhibition [3]: inactive
residual activity [4]: 23%
residual activity [5]: 66%
residual activity [6]: 23%
MIC [7]: 159 µM (≈ 75.1 µg/mL)
inhibition [8]: Active
IC50 [9]: 30 µM
MIC [10]: 159 µM (≈ 75.1 µg/mL)
MIC [11]: > 100 µg/mL
residual activity [12]: 84%
inhibition [13]: inactive
SMILES: O=C(O)C[C@H](C(=O)O)N1C(=O)/C(=C\c2ccc(-c3cc(Cl)ccc3Cl)o2)SC1=S

SMILES: COc1ccc(N(CC(=O)Nc2ccccc2C(N)=O)S(=O)(=O)c2ccccc2)c(OC)c1
MIC [1]: 250 µg/mL (≈ 532 µM)
MIC [2]: 62.5 µg/mL (≈ 133 µM)

SMILES: C/C(=N\NC(=O)c1nnn(-c2nonc2N)c1CN1CCc2ccccc21)c1ccc(O)cc1O
MIC [1]: 525 µg/mL (≈ 1100 µM)
MIC [2]: 525 µg/mL (≈ 1100 µM)

SMILES: NC(=O)NC(=O)COC(=O)c1ccc(Cl)c(S(=O)(=O)N(Cc2ccccc2)c2ccc(Cl)cc2)c1
MIC [1]: 500 µg/mL (≈ 932 µM)
MIC [2]: 125 µg/mL (≈ 233 µM)

SMILES: CCOC(=O)C1=c2s/c(=C/c3ccccc3I)c(=O)n2C(N)=C(C#N)[C@@H]1c1ccccc1I
MIC [1]: 264 µg/mL (≈ 387 µM)
MIC [2]: 264 µg/mL (≈ 387 µM)

SMILES: CO[C@@H]1[C@@H](OC(N)=O)[C@@H](O)[C@H](Oc2ccc3c(O)c(NC(=O)c4ccc(O)c(CC=C(C)C)c4)c(=O)oc3c2C)OC1(C)C [NOVOBIOCIN]
MIC [7]: < 1.27 µM
MIC [1]: < 1.95 µg/mL
MIC [10]: < 1.27 µM
inhibition [13]: inactive

SMILES: COc1cccc([C@@H]2Nc3c(ccc(C(=O)O)c3C)[C@H]3C=CC[C@H]32)c1
MIC [1]: 125 µg/mL (≈ 373 µM)
MIC [2]: 62.5 µg/mL (≈ 186 µM)

inhibition [3]: inactive
residual activity [4]: 52%
residual activity [5]: 76%
residual activity [6]: 25%
MIC [7]: 46.5 µM (≈ 18.8 µg/mL)
IC50 [9]: 100 µM
MIC [10]: 31 µM (≈ 12.5 µg/mL)
MIC [11]: > 100 µg/mL
residual activity [12]: 84%
inhibition [13]: inactive
SMILES: O=C(O)C[C@H](c1ccccc1)N1C(=O)/C(=C/c2ccccc2Cl)SC1=S

SMILES: O=C1C[C@H](c2cccc(O)c2)Nc2ccc3ccccc3c21
MIC [1]: 62.5 µg/mL (≈ 216 µM)
MIC [2]: 62.5 µg/mL (≈ 216 µM)

SMILES: Cc1cccc(NS(=O)(=O)c2cc(C(N)=O)ccc2Cl)c1C
MIC [1]: 62.5 µg/mL (≈ 184 µM)
MIC [2]: 62.5 µg/mL (≈ 184 µM)

SMILES: CC(=O)Oc1ccc([C@@H]2Oc3nc(SCc4ccccc4Cl)nnc3-c3ccccc3N2C(C)=O)cc1Br
MIC [1]: 512 µg/mL (≈ 838 µM)
MIC [2]: 512 µg/mL (≈ 838 µM)

SMILES: COc1ccc(C(=O)C2=C(O)C(=O)N(CCc3c[nH]c4ccccc34)[C@@H]2c2ccccc2Cl)cc1
MIC [1]: 253 µg/mL (≈ 520 µM)
MIC [2]: 253 µg/mL (≈ 520 µM)

SMILES: COc1cc([C@@H]2C3=C(CCCC3=O)Nc3[nH]c(SCc4ccccc4Cl)nc(=O)c32)ccc1O
MIC [1]: 500 µg/mL (≈ 1010 µM)
MIC [2]: 500 µg/mL (≈ 1010 µM)

inhibition [14]: Active
MIC [7]: 27 µM (≈ 9.22 µg/mL)
MIC [10]: 13.5 µM (≈ 4.61 µg/mL)
MIC [11]: > 100 µg/mL
inhibition [13]: inactive
SMILES: CCc1ccccc1N1C(=O)/C(=C/c2cccc(O)c2)SC1=S
